From patent US4752614A, “Pharmaceutical compositions of tellerium and selenium compounds for the induction of in vivo and in vitro production of cytokines” (Bar-Ilan University, priority 1987, dated 1988)
Where “and” joins values, the source holds several entries; their conditions need not be identical. Equal entries are not always repeated.

Experiments:
human mononuclear cells [1] = assay: Proliferation of human mononuclear cells (Example 19); format: cell-based
Experimental: Human mononuclear cells were obtained by layering heparinized blood over a Ficoll/Hypaque gradient. The mononuclear cells were resuspended in enriched RPMI, rinsed three times and brought to a concentrations of 5×10^5 cells/ml encriched RPMI. […] Aliquots of 0.2 ml of each sample were placed in wells of microplates (triplicates). Microplates were incubated for 72 hours at 37° C. after which they were labelled with H^3 methyl-thymidine 1 μCi/well for an additional 24 hours. Cells were then harvested with a cell harvester.

IL-2 receptors = assay: Induction of IL-2 receptors of human mononuclear cells, proliferation with recombinant IL-2 (Example 18); format: cell-based
Experimental: Human MNC were brought to a concentration of 10^6 cells/ml. RPMI+10% FCS. Aliquots of 0.2 ml. were placed in duplicate wells of microdishes and plates were incubated at 37° C. for 24 hrs. […] Plates were further incubated for 48 hrs. and labelled with 3H thymidine 24 hrs. before harvesting.
The proliferation was measured by ^3 HT uptake as described by Gillis et al, J. Immunol. […] The results are expressed in counts per minute.

IL-2 [2] = assay: IL-2 secretion by mouse spleen cells in vitro, CTLD proliferation (Example 17); format: cell-based, male Balb/c mice; conditions: for activation at 1 µg/mL: Mus musculus, read-out: Spleen Cells, percent in parentheses (increase over control)
Experimental: The compounds listed below were tested in vitro at various concentrations that ranged from 10 μg/ml cells to 1×10^-6 μg/ml of cell mixtures. Cells were obtained from spleens of male Balb/c mice 6-8 weeks of age. Spleens were pushed through a stainless steel 60 mesh strainer to separate cells.

T-cell lymphocytes = assay: Lymphokine induction, proliferation and receptor activation in T-cell lymphocytes (statement)
Excerpt: Thus the invention also contemplates the use alone of TeO2 and tellurium compounds that are active as lymphokine inducers.

receptor sites for IL-2 = assay: Detection of IL-2 receptors with fluoresceinated antibody (Example 21); format: cell-based, human; conditions: 1 μg/ml, 24 hours
Experimental: This example provides an assay to detect the presence of receptor sites for IL-2. […] The cells were washed twice with PDS and then incubated with a specific fluoresceinated antibody against IL-2 receptors as described in Uchiyama et al, J. Immunol.

human mononuclear cells [3] = assay: Proliferation of human mononuclear cells, 3H-methylthymidine (Examples 4 and 9); format: cell-based; conditions: 1 to 10 ng/ml cells, 72 hours (Example 9)
Experimental: Cells were further incubated overnight and harvested with a cell harvester.

IL-2 [4] = assay: Oral administration in drinking water, IL-2 content of spleen cell supernatants (Example 13); format: in vivo, male Balb-C mice; conditions: 4 days
Experimental: The water solution was prepared by dissolving the compounds in PBS at a concentration of 50 μg/ml PBS and diluting the resulting solution to the desired concentration. The compounds were administered over a 4 day period. The exact amount of liquid intake was recorded daily. […] The cells were incubated at a concentration of 10^7 cells/ml in enriched RPMI containing 2 μg/ml of con-A for 24 hours at 37° C. The supernatants were collected and tested for IL-2 content.

[5] = second part of table, 1 × 10^-1 μg/ml
[6] = second part of table, 1 × 10^-2 μg/ml
[7] = second part of table, 1 × 10^-3 μg/ml
[8] = second part of table, 1 × 10^-4 μg/ml
[9] = second part of table, 5 × 10^-1 μg/ml
[10] = second part of table, 5 × 10^-2 μg/ml
[11] = 24 hours, 1 μg/ml of cell mixture

## CC1CO[TeH](Cl)(Cl)(Cl)O1 (centres unmarked) [Example 16(a)]
Human mononuclear cells [1]; second part of table, 1 μg/ml
  proliferation of human mononuclear cells: 4557
Human mononuclear cells [1]; second part of table, 5 μg/ml
  proliferation of human mononuclear cells: 4118
Human mononuclear cells [1]; [5]
  proliferation of human mononuclear cells: 12435
Human mononuclear cells [1]; [6]
  proliferation of human mononuclear cells: 6000
Human mononuclear cells [1]; [7]
  proliferation of human mononuclear cells: 6300
Human mononuclear cells [1]; [8]
  proliferation of human mononuclear cells: 4587
Human mononuclear cells [1]; [9]
  proliferation of human mononuclear cells: 18415
Human mononuclear cells [1]; [10]
  proliferation of human mononuclear cells: 5953
IL-2 receptors; Test A, 1 μg/ml
  proliferation (3HT uptake): 21910 counts per minute
IL-2 receptors; Test A, 1 × 10^-2 μg/ml
  proliferation (3HT uptake): 9543 counts per minute
IL-2 receptors; Test A, 1 × 10^-3 μg/ml
  proliferation (3HT uptake): 6685 counts per minute
IL-2 receptors; Test A, 1 × 10^-4 μg/ml
  proliferation (3HT uptake): 6447 counts per minute
IL-2 receptors; Test A, 1 × 10^-5 μg/ml
  proliferation (3HT uptake): 8177 counts per minute
IL-2 receptors; Test A, 5 × 10^-1 μg/ml
  proliferation (3HT uptake): 145208 counts per minute
IL-2 receptors; Test A, 5 × 10^-2 μg/ml
  proliferation (3HT uptake): 8752 counts per minute
IL-2 receptors; Test A, 7 × 10^-1 μg/ml
  proliferation (3HT uptake): 130845 counts per minute
IL-2 [2]; [11]
  Spleen Cells (IL-2 activity): 13,540 cpm
  activation at 1 µg/mL: 435%

## Cl[Te](Cl)(Cl)c1ccccc1 [Ph Te Cl3, reference compound]
IL-2 [2]; [11]
  Spleen Cells (IL-2 activity): 18,000 cpm
  activation at 1 µg/mL: 605%

## O=[Te]=O [TeO2, Tellurium dioxide, reference compound]
T-cell lymphocytes
  activation of the receptor site in responder T-cell lymphocytes: will not cause proliferation of IL-2 producer cells or activate the receptor site
  proliferation of IL-2 producer cells: will not cause proliferation of IL-2 producer cells
T-cell lymphocytes; in vitro and in vivo
  lymphokine production in producer T-cell lymphocytes: will induce lymphokine production
Human mononuclear cells [1]; any concentration that was tested
  effect on proliferation: No significant effect
Human mononuclear cells [1]; second part of table, 1 μg/ml
  proliferation of human mononuclear cells: 2842
Human mononuclear cells [1]; second part of table, 5 μg/ml
  proliferation of human mononuclear cells: 3028
Human mononuclear cells [1]; [5]
  proliferation of human mononuclear cells: 4825
Human mononuclear cells [1]; [6]
  proliferation of human mononuclear cells: 4730
Human mononuclear cells [1]; [7]
  proliferation of human mononuclear cells: 6168
Human mononuclear cells [1]; [8]
  proliferation of human mononuclear cells: 5331
Human mononuclear cells [1]; [9]
  proliferation of human mononuclear cells: 4773
Human mononuclear cells [1]; [10]
  proliferation of human mononuclear cells: 5802
IL-2 receptors; Test A, 1 μg/ml
  proliferation (3HT uptake): 1563 counts per minute
IL-2 receptors; Test A, 1 × 10^-2 μg/ml
  proliferation (3HT uptake): 3108 counts per minute
IL-2 receptors; Test A, 1 × 10^-3 μg/ml
  proliferation (3HT uptake): 2867 counts per minute
IL-2 receptors; Test A, 1 × 10^-4 μg/ml
  proliferation (3HT uptake): 5540 counts per minute
IL-2 receptors; Test A, 1 × 10^-5 μg/ml
  proliferation (3HT uptake): 3442 counts per minute
IL-2 receptors; Test A, 5 × 10^-1 μg/ml
  proliferation (3HT uptake): 4667 counts per minute
IL-2 receptors; Test A, 5 × 10^-2 μg/ml
  proliferation (3HT uptake): 2515 counts per minute
IL-2 receptors; Test A, 7 × 10^-1 μg/ml
  proliferation (3HT uptake): 2475 counts per minute
IL-2 receptors; Test B, 1 μg/ml
  proliferation (3HT uptake): 3275 counts per minute
IL-2 receptors; Test B, 1 × 10^-2 μg/ml
  proliferation (3HT uptake): 3077 counts per minute
IL-2 receptors; Test B, 1 × 10^-3 μg/ml
  proliferation (3HT uptake): 3800 counts per minute
IL-2 receptors; Test B, 1 × 10^-4 μg/ml
  proliferation (3HT uptake): 2925 counts per minute
IL-2 receptors; Test B, 1 × 10^-5 μg/ml
  proliferation (3HT uptake): 3645 counts per minute
IL-2 receptors; Test B, 5 × 10^-1 μg/ml
  proliferation (3HT uptake): 5405 counts per minute
IL-2 receptors; Test B, 5 × 10^-2 μg/ml
  proliferation (3HT uptake): 4280 counts per minute
IL-2 receptors; Test B, 7 × 10^-1 μg/ml
  proliferation (3HT uptake): 4302 counts per minute
Receptor sites for IL-2
  cells positive for IL-2 receptors: 5%
IL-2 [2]; [11]
  Spleen Cells (IL-2 activity): 17,055 cpm
  Spleen Cells, percent in parentheses (increase over control): +508%

## O=C(O[Te](OC(=O)c1ccccc1)(c1ccccc1)c1ccccc1)c1ccccc1 [Ph2 Te (OCOPh)2, reference compound]
IL-2 [2]; [11]
  Spleen Cells (IL-2 activity): 4,300 cpm
IL-2 [2]
  activity at level tested (footnote *): no significant activity

## Cl[Te]1(Cl)OCCO1 [Example 2]
Human mononuclear cells [1]; Ex. 2 table, 1 × 10^-4 μg/ml
  proliferation of human mononuclear cells: 4321 and 2332
Human mononuclear cells [1]; Ex. 2 table, 5 × 10^-1 μg/ml
  proliferation of human mononuclear cells: 18415 and 23957
Human mononuclear cells [1]; Ex. 2 table, 5 × 10^-2 μg/ml
  proliferation of human mononuclear cells: 5953 and 5532
Human mononuclear cells [3]
  increase of proliferation of human mononuclear cells: 10 fold
IL-2 receptors; Test B, 1 μg/ml
  proliferation (3HT uptake): 9315 counts per minute
IL-2 receptors; Test B, 1 × 10^-2 μg/ml
  proliferation (3HT uptake): 6418 counts per minute
IL-2 receptors; Test B, 1 × 10^-3 μg/ml
  proliferation (3HT uptake): 5167 counts per minute
IL-2 receptors; Test B, 1 × 10^-4 μg/ml
  proliferation (3HT uptake): 5372 counts per minute
IL-2 receptors; Test B, 1 × 10^-5 μg/ml
  proliferation (3HT uptake): 6397 counts per minute
IL-2 receptors; Test B, 5 × 10^-1 μg/ml
  proliferation (3HT uptake): 8688 counts per minute
IL-2 receptors; Test B, 5 × 10^-2 μg/ml
  proliferation (3HT uptake): 5538 counts per minute
IL-2 receptors; Test B, 7 × 10^-1 μg/ml
  proliferation (3HT uptake): 5250 counts per minute
IL-2 [4]; 1 μg/ml H2O
  IL-2 content: 42500 cpm
  Percent increase as compared to control: +30%
IL-2 [4]; 10 μg/ml H2O
  IL-2 content: 36815 cpm
IL-2 [4]; 25 μg/ml H2O
  IL-2 content: 44500 cpm
  Percent increase as compared to control: +35%
IL-2 [2]; [11]
  Spleen Cells (IL-2 activity): 18,000 cpm
  activation at 1 µg/mL: 605%

## Cl[TeH]1(Cl)(Cl)OCCCO1 [Example 16(c)]
IL-2 [2]; [11]
  Spleen Cells (IL-2 activity): 15,720 cpm
  activation at 1 µg/mL: 516%

## Cl[Te](Cl)(c1ccccc1)c1ccccc1 [Ph2 Te Cl2, reference compound]
IL-2 [2]; [11]
  Spleen Cells (IL-2 activity): 2,300 cpm
IL-2 [2]
  activity at level tested (footnote *): no significant activity

## CC1O[TeH](Cl)(Cl)(Cl)OC1C (centres unmarked) [Example 16(b)]
IL-2 receptors; Test A, 1 μg/ml
  proliferation (3HT uptake): 1018 counts per minute
IL-2 receptors; Test A, 1 × 10^-2 μg/ml
  proliferation (3HT uptake): 5883 counts per minute
IL-2 receptors; Test A, 1 × 10^-3 μg/ml
  proliferation (3HT uptake): 1093 counts per minute
IL-2 receptors; Test A, 1 × 10^-4 μg/ml
  proliferation (3HT uptake): 1138 counts per minute
IL-2 receptors; Test A, 1 × 10^-5 μg/ml
  proliferation (3HT uptake): 2146 counts per minute
IL-2 receptors; Test A, 5 × 10^-1 μg/ml
  proliferation (3HT uptake): 1195 counts per minute
IL-2 receptors; Test A, 5 × 10^-2 μg/ml
  proliferation (3HT uptake): 1602 counts per minute
IL-2 receptors; Test A, 7 × 10^-1 μg/ml
  proliferation (3HT uptake): 2102 counts per minute
IL-2 [2]; [11]
  Spleen Cells (IL-2 activity): 10,650 cpm
  activation at 1 µg/mL: 318%

## COc1ccc([Te](Cl)(Cl)c2ccc(OC)cc2)cc1 [(pCH3 OPh)2 TeCl2, reference compound]
IL-2 [2]; [11]
  Spleen Cells (IL-2 activity): 2,148 cpm

## C1CO[Te]2(O1)OCCO2 [Example 14]
IL-2 receptors; Test B, 1 μg/ml
  proliferation (3HT uptake): 2620 counts per minute
IL-2 receptors; Test B, 1 × 10^-2 μg/ml
  proliferation (3HT uptake): 3928 counts per minute
IL-2 receptors; Test B, 1 × 10^-3 μg/ml
  proliferation (3HT uptake): 3007 counts per minute
IL-2 receptors; Test B, 1 × 10^-4 μg/ml
  proliferation (3HT uptake): 2327 counts per minute
IL-2 receptors; Test B, 1 × 10^-5 μg/ml
  proliferation (3HT uptake): 2242 counts per minute
IL-2 receptors; Test B, 5 × 10^-1 μg/ml
  proliferation (3HT uptake): 2402 counts per minute
IL-2 receptors; Test B, 5 × 10^-2 μg/ml
  proliferation (3HT uptake): 3290 counts per minute
IL-2 receptors; Test B, 7 × 10^-1 μg/ml
  proliferation (3HT uptake): 2000 counts per minute
IL-2 [2]; [11]
  Spleen Cells (IL-2 activity): 10,300 cpm
  activation at 1 µg/mL: 304%

## CC(=O)O[Te](OC(C)=O)(c1ccccc1)c1ccccc1 [Ph2 Te (OCOCH3)2, reference compound]
IL-2 [2]; [11]
  Spleen Cells (IL-2 activity): 3,500 cpm
IL-2 [2]
  activity at level tested (footnote *): no significant activity

## Cl[TeH]1(Cl)(Cl)OCCCCO1 [Example 16(d)]
IL-2 [2]; [11]
  Spleen Cells (IL-2 activity): 18,075 cpm
  activation at 1 µg/mL: 608%
